Reference: PMC10093605, “ABCB1 and ABCG2 Overexpression Mediates Resistance to the Phosphatidylinositol 3-Kinase Inhibitor HS-173 in Cancer Cell Lines” (Cells, 2023)

Key:
ABCB1 = target: T1, ABCB1 (Homo sapiens, UniProt P08183); test: vanadate-sensitive ATPase, endpoint Pi assay, membrane vesicles; format: biochemical; conditions: read-out: concentration to produce half of the maximum stimulation
T1 construct: membrane vesicles of ABCB1-overexpressing High Five insect cells
Text: vanadate-sensitive ATPase, endpoint Pi assay, membrane vesicles on ABCB1 | HS-173 stimulated the ATPase activity of ABCB1 in a concentration-dependent manner

ABCG2 = target: T2, ABCG2 (Homo sapiens, UniProt Q9UNQ0); test: as above; format: biochemical; conditions: read-out: concentration to produce half of the highest stimulation
T2 construct: membrane vesicles of ABCG2-overexpressing High Five insect cells; homodimer
T2 sequence (Q9UNQ0 1-655): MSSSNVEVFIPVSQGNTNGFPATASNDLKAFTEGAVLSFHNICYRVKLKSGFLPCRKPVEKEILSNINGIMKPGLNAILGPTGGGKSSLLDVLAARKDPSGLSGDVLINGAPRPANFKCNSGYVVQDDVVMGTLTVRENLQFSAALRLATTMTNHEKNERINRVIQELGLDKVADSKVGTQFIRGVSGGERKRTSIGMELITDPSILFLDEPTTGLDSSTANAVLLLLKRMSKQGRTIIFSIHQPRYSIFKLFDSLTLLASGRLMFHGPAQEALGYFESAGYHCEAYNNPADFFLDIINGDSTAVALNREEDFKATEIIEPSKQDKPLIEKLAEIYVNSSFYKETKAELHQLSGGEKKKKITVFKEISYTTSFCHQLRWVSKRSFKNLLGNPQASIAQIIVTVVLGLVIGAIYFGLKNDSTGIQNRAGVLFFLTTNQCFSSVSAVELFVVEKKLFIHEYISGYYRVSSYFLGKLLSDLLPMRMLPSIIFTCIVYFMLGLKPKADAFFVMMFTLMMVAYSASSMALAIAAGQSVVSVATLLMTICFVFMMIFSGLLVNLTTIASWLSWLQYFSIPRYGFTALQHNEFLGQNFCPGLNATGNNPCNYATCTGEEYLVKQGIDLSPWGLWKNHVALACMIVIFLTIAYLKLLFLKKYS
Text: vanadate-sensitive ATPase, endpoint Pi assay, membrane vesicles on ABCG2 | ABCG2-mediated ATP hydrolysis was stimulated by HS-173 in a concentration-dependent manner

T1 sequence (P08183 whole entry): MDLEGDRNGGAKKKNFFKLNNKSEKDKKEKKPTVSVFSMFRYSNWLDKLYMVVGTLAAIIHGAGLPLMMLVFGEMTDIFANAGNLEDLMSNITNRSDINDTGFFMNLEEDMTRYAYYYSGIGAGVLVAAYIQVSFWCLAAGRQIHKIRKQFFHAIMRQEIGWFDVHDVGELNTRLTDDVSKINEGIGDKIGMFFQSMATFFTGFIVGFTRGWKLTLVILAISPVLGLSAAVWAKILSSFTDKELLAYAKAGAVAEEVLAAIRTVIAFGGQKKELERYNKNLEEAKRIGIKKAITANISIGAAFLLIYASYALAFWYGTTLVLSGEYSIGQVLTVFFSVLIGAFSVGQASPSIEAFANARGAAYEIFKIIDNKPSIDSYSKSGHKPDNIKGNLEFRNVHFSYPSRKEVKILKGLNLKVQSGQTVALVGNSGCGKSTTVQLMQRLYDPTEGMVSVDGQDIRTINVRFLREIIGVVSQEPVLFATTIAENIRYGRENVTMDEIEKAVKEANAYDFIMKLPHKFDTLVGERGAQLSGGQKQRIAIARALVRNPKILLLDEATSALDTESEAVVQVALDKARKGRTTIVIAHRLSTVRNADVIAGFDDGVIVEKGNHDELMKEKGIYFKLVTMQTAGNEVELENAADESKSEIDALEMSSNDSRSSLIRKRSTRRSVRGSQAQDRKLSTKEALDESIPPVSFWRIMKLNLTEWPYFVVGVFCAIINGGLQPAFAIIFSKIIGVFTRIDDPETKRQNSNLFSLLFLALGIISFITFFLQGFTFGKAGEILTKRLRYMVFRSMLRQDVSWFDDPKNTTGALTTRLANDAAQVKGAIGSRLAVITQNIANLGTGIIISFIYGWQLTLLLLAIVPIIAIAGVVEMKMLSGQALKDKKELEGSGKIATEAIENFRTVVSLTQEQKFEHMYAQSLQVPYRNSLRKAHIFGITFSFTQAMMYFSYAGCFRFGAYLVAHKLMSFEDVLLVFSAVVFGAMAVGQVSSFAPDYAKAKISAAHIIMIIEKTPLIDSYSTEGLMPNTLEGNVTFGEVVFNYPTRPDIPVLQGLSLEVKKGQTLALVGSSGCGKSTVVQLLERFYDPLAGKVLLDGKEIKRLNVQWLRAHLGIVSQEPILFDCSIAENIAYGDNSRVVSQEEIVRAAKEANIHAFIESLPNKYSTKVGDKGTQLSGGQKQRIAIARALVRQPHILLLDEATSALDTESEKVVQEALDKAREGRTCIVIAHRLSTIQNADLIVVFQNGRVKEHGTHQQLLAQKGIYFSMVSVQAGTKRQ

EC50 (ABCB1): ~1700 nM
EC50 (ABCG2): ~400 nM
Compound: CCOC(=O)c1cnc2ccc(-c3cncc(NS(=O)(=O)c4ccccc4)c3)cn12 [HS-173]
